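Tested at 5 concentrations; 48 h exposure; 96-well plates; endpoints linearly interpolated, else capped at highest concentration. GI50 marks 50% less growth.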 Calls of active or inactive are those of the source. Rule as the data show it: active = GI50 up to about 1.1 µM and inactive = higher.
Tests used:
Assay in all cases: NCI anticancer screen, dose series, 48 h
BT-549 = system: BT-549
SF-295 = system: SF-295
COLO 205 = system: COLO 205
SNB-19 = system: SNB-19
NCI-H23 = system: NCI-H23
DU-145 = system: DU-145
U-251 = system: U-251
NCI-H522 = system: NCI-H522
SK-MEL-5 = system: SK-MEL-5
UO-31 = system: UO-31
SF-539 = system: SF-539
ACHN = system: ACHN
MDA-N = system: MDA-N
M14 = system: M14
LOX IMVI = system: LOX IMVI
SK-MEL-28 = system: SK-MEL-28
NCI-H226 = system: NCI-H226
MDA-MB-231 = system: MDA-MB-231
TK-10 = system: TK-10
HOP-62 = system: HOP-62

Measured: GI50

O=Cc1c(C(=O)O)[nH]c(=O)[nH]c1=O
inactive: BT-549 > 100 µM | SF-295 > 100 µM | COLO 205 > 100 µM | SNB-19 > 100 µM | NCI-H23 > 100 µM | DU-145 > 100 µM | U-251 > 100 µM | NCI-H522 58.3 µM | SK-MEL-5 98.6 µM | UO-31 > 100 µM | SF-539 > 100 µM | ACHN > 100 µM | MDA-N > 100 µM | M14 > 100 µM | LOX IMVI > 100 µM | SK-MEL-28 > 100 µM | NCI-H226 > 100 µM | MDA-MB-231 > 100 µM | TK-10 > 100 µM

CC(C)=CCN1c2ccccc2[C@@]2(CC=C(C)C)CCN(C)[C@@H]12 [(+)-DEBROMOFLUSTRAMINE B]
inactive: BT-549 21.9 µM | SF-295 21 µM | COLO 205 13.9 µM | SNB-19 22.3 µM | NCI-H23 40.5 µM | DU-145 45.2 µM | U-251 18.2 µM | NCI-H522 18.6 µM | HOP-62 19.2 µM | SK-MEL-5 17.6 µM | UO-31 14.8 µM | SF-539 24.3 µM | ACHN 32.5 µM | MDA-N 26.5 µM | LOX IMVI 15.1 µM | SK-MEL-28 35.5 µM | NCI-H226 44.2 µM | MDA-MB-231 21.4 µM | TK-10 35.9 µM

O=C1C(c2c(O)[nH]c3ccc(F)cc23)=Nc2ccccc21
inactive: BT-549 > 100 µM | SF-295 27.4 µM | COLO 205 > 100 µM | SNB-19 26.5 µM | NCI-H23 73.1 µM | DU-145 > 100 µM | U-251 13.3 µM | NCI-H522 > 100 µM | HOP-62 46.2 µM | SK-MEL-5 > 100 µM | UO-31 > 100 µM | ACHN > 100 µM | MDA-N > 100 µM | M14 > 100 µM | LOX IMVI > 100 µM | SK-MEL-28 > 100 µM | NCI-H226 > 100 µM | MDA-MB-231 12.9 µM | TK-10 22.1 µM

CCCCCCCCCCC(C(=O)O)C1(C(=O)O)CCC(=O)O1 (centres undefined)
inactive: BT-549 > 100 µM | SF-295 > 100 µM | COLO 205 > 100 µM | SNB-19 > 100 µM | NCI-H23 > 100 µM | DU-145 > 100 µM | U-251 > 100 µM | NCI-H522 > 100 µM | HOP-62 > 100 µM | UO-31 > 100 µM | ACHN > 100 µM | MDA-N > 100 µM | M14 > 100 µM | LOX IMVI > 100 µM | SK-MEL-28 > 100 µM | NCI-H226 > 100 µM | MDA-MB-231 > 100 µM | TK-10 > 100 µM

Cc1ccccc1/N=N/c1cc(C)c(/N=N/c2c(O)ccc3ccccc23)cc1C
inactive: BT-549 > 100 µM | SF-295 > 100 µM | COLO 205 > 100 µM | SNB-19 > 100 µM | NCI-H23 > 100 µM | DU-145 > 100 µM | U-251 99.3 µM | NCI-H522 > 100 µM | HOP-62 > 100 µM | SK-MEL-5 > 100 µM | UO-31 > 100 µM | ACHN > 100 µM | MDA-N > 100 µM | M14 > 100 µM | LOX IMVI > 100 µM | SK-MEL-28 > 100 µM | NCI-H226 > 100 µM | MDA-MB-231 > 100 µM | TK-10 > 100 µM

Cc1ccc(-c2nc(-c3cnccn3)n(C3OC(CO)C(O)C(O)C3O)n2)cc1 (centres undefined)
inactive: BT-549 > 100 µM | SF-295 > 100 µM | COLO 205 > 100 µM | SNB-19 > 100 µM | NCI-H23 > 100 µM | DU-145 > 100 µM | U-251 > 100 µM | NCI-H522 > 100 µM | HOP-62 > 100 µM | SK-MEL-5 > 100 µM | UO-31 > 100 µM | SF-539 > 100 µM | MDA-N > 100 µM | M14 > 100 µM | LOX IMVI > 100 µM | SK-MEL-28 > 100 µM | MDA-MB-231 > 100 µM | TK-10 > 100 µM

CN(C)S(=O)(=O)c1ccc2c(c1)/C(=C1/Nc3ccccc3C1=O)C(=O)N2
inactive: BT-549 15 µM | SF-295 12.9 µM | COLO 205 > 100 µM | SNB-19 15.7 µM | NCI-H23 16.1 µM | DU-145 24.9 µM | U-251 10.6 µM | NCI-H522 25.5 µM | HOP-62 15.7 µM | SK-MEL-5 > 100 µM | UO-31 44.3 µM | ACHN 12.1 µM | MDA-N > 100 µM | M14 > 100 µM | LOX IMVI 41.6 µM | SK-MEL-28 > 100 µM | NCI-H226 25.2 µM | MDA-MB-231 17 µM | TK-10 19.5 µM

O=C1CCC(=O)N1n1c(Cc2ccccc2)n[nH]c1=O
inactive: BT-549 > 100 µM | SF-295 > 100 µM | COLO 205 > 100 µM | SNB-19 > 100 µM | DU-145 > 100 µM | U-251 > 100 µM | NCI-H522 > 100 µM | HOP-62 > 100 µM | SK-MEL-5 > 100 µM | UO-31 > 100 µM | ACHN > 100 µM | MDA-N > 100 µM | M14 > 100 µM | LOX IMVI > 100 µM | SK-MEL-28 > 100 µM | NCI-H226 > 100 µM | MDA-MB-231 > 100 µM | TK-10 > 100 µM

From ChEMBL document CHEMBL1201862, “PubChem BioAssay data set” (2004)
